What all share (type): functional
Assay [1] deals with P388. The experiment in a line: In vivo antitumor activity against mouse P388 cells at 200 mg/kg after 1 day.
Assay [2] relates to P388. The assay is described as follows: In vivo antitumor activity against mouse P388 cells at 25 mg/kg after 3 days.
The next assay has as its system KB. The experiment in a line: Cytotoxicity against human KB cells. The note with it: for EC50: read-out: ED50 (the source's name).

Values after ≈ are worked out from the molar mass of the structure shown. Active and inactive are the calls of the source. The rule behind the calls is not given here. A value given as a limit tells only on which side of the number the result lay.

With `O=c1[nH]cc(F)c(=O)[nH]1` [FLUOROURACIL], in the assay with P388 [1], the T/C (in general, the ratio of treated to control) worked out at 135%.
For the compound `COc1cccc2c1c1c(OC)cnc3ccc(=O)n2c31`, in the assay with P388 [2], the T/C came out at 122%. The EC50 in the assay with KB amounted to 1 µg/mL (≈ 3.57 µM).
As to `O=c1ccc2nccc3c4ccccc4n1c23`, in the assay with KB, the result was inactive.
For the compound `O=c1ccc2nccc3c4c(O)cccc4n1c23`, the EC50 in the assay on KB was not above 4 µg/mL.

The record behind these values is ChEMBL document CHEMBL1149009, “Antitumor agents, 79. Cytotoxic antileukemic alkaloids from Brucea antidysenterica” (1986).
